US8236964B2, “Thiazolidine derivatives as orexin receptor antagonists” (Actelion Pharmaceuticals Ltd., priority 2007, dated 2012)

Columns and labels:
human orexin-1 receptor = target: T1, human orexin-1 receptor (Homo sapiens, UniProt O43613); assay: Intracellular calcium measurements (FLIPR), orexin receptor antagonistic activity, OX1; assay type: cell-based; details: CHO cells expressing the human orexin-1 receptor; 10 nM orexin-A as agonist
T1 construct: expressed in transfected cells; host or cells: CHO cells (G418 selection)
T1 sequence (O43613 1-425): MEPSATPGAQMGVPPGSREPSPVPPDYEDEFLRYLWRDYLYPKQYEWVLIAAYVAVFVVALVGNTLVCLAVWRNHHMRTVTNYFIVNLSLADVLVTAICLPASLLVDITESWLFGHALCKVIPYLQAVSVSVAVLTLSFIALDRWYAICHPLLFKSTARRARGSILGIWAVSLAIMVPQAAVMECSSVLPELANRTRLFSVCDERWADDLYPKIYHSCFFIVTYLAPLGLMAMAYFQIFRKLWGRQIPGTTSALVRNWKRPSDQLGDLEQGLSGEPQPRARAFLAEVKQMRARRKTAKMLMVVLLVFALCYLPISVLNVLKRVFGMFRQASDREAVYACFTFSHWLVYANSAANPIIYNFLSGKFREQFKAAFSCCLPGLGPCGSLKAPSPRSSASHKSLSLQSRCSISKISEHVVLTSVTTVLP
Procedure: (§1) The orexin receptor antagonistic activity of the compounds of formula (I) is determined in accordance with the following experimental method.
(§2) Intracellular Calcium Measurements:
(§3) Chinese hamster ovary (CHO) cells expressing the human orexin-1 receptor and the human orexin-2 receptor, respectively, are grown in culture medium (Ham F-12 with L-Glutamine) containing 300 μg/ml G418, 100 U/ml penicillin, 100 μg/ml streptomycin and 10% inactivated fetal calf serum (FCS). The cells are seeded at 80,000 cells/well into 96-well black clear bottom sterile plates (Costar) which have been precoated with 1% gelatine in Hanks' Balanced Salt Solution (HBSS). All reagents are from Gibco BRL. The seeded plates are incubated overnight at 37° C. in 5% CO2.
(§4) Human orexin-A as an agonist is prepared as 1 mM stock solution in methanol:water (1:1), diluted in HBSS containing 0.1% bovine serum albumin (BSA) and 2 mM HEPES for use in the assay at a final concentration of 10 nM.
(§5) Antagonists are prepared as 10 mM stock solution in DMSO, then diluted in 96-well plates, first in DMSO, then in HBSS containing 0.1% bovine serum albumin (BSA) and 2 mM HEPES.
(§6) On the day of the assay, 100 μl of loading medium (HBSS containing 1% FCS, 2 mM HEPES, 5 mM probenecid (Sigma) and 3 μM of the fluorescent calcium indicator fluo-3 AM (1 mM stock solution in DMSO with 10% pluronic acid) (Molecular Probes) is added to each well.
(§7) The 96-well plates are incubated for 60 min at 37° C. in 5% CO2. The loading solution is then aspirated and cells are washed 3 times with 200 μl HBSS containing 2.5 mM probenecid, 0.1% BSA, 2 mM HEPES. 100 μl of that same buffer is left in each well.
(§8) Within the Fluorescent Imaging Plate Reader (FLIPR, Molecular Devices), antagonists are added to the plate in a volume of 50 μl, incubated for 20 min and finally 100 μl of agonist is added. Fluorescence is measured for each well at 1 second intervals, and the height of each fluorescence peak is compared to the height of the fluorescence peak induced by 10 nM orexin-A with buffer in place of antagonist. For each antagonist, IC50 value (the concentration of compound needed to inhibit 50% of the agonistic response) is determined.

human orexin-2 receptor = target: T2, human orexin-2 receptor (Homo sapiens, UniProt O43614); assay: Intracellular calcium measurements (FLIPR), orexin receptor antagonistic activity, OX2; assay type: cell-based; details: CHO cells expressing the human orexin-2 receptor; 10 nM orexin-A as agonist
T2 construct: expressed in transfected cells; host or cells: CHO cells (G418 selection)
T2 sequence (O43614 1-444): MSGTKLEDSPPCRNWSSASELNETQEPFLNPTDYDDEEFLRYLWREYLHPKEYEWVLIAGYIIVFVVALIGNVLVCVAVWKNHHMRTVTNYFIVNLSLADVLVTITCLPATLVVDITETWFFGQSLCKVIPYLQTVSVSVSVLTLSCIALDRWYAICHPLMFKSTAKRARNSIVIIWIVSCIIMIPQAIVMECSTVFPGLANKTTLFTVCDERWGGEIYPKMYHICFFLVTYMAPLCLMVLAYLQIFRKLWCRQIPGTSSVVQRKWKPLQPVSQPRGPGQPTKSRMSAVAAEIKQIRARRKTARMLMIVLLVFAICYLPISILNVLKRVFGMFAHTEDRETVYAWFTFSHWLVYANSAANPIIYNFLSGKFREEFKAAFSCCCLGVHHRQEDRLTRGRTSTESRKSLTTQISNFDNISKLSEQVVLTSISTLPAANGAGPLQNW
Procedure: as §1, §2, §3, §4, §5, §6, §7
as §8, with “determined. Antagonistic activities of compounds are in the nanomolar range below 1000 nM with respect to the OX1 and/or the OX2 receptor.” for “determined.”

IC50 (human orexin-1 receptor)	IC50 (human orexin-2 receptor)	SMILES
59 nM	80 nM	Cc1nc(C(=O)N2CSC[C@H]2CNC(=O)c2c(C)nc3sccn23)c(-c2cccc(C(F)(F)F)c2)o1 [Example 38, 6-Methyl-imidazo[2,1-b]thiazole-5-carboxylic acid {(R)-3-[2-methyl-5-(3-trifluoromethyl-phenyl)-oxazole-4-carbonyl]-thiazolidin-4-ylmethyl}-amide]
2 nM	1 nM	Cc1cccc(-c2sc(C)nc2C(=O)N2CSC[C@H]2CNC(=O)c2ccc(F)c3occc23)c1 [Example 127, 7-Fluoro-benzofuran-4-carboxylic acid [(R)-3-(2-methyl-5-m-tolyl-thiazole-4-carbonyl)-thiazolidin-4-ylmethyl]-amide]
99 nM	804 nM	Cc1nc(C(=O)N2CSC[C@H]2CNC(=O)c2c(C)nc3ccccn23)c(-c2ccc(F)cc2)s1 [Example 110, 2-Methyl-imidazo[1,2-a]pyridine-3-carboxylic acid {(R)-3-[5-(4-fluoro-phenyl)-2-methyl-thiazole-4-carbonyl]-thiazolidin-4-ylmethyl}-amide]
10 nM	4 nM	Cc1cccc(-c2sc(C)nc2C(=O)N2CSC[C@H]2CNC(=O)c2ccc(C(F)(F)F)c3occc23)c1 [Example 141, 7-Trifluoromethyl-benzofuran-4-carboxylic acid [(R)-3-(2-methyl-5-m-tolyl-thiazole-4-carbonyl)-thiazolidin-4-ylmethyl]-amide]
23 nM	9 nM	O=C(NC[C@@H]1CSCN1C(=O)c1ccccc1-c1ccccc1)c1cccc2occc12 [Example 79, Benzofuran-4-carboxylic acid [(R)-3-(biphenyl-2-carbonyl)-thiazolidin-4-ylmethyl]-amide]
6 nM	7 nM	Cc1nc(C(=O)N2CSC[C@H]2CNC(=O)c2c(C)nc3sccn23)c(-c2cccc(F)c2)s1 [Example 31, 6-Methyl-imidazo[2,1-b]thiazole-5-carboxylic acid {(R)-3-[5-(3-fluoro-phenyl)-2-methyl-thiazole-4-carbonyl]-thiazolidin-4-ylmethyl}-amide]
8 nM	3 nM	COC1Cc2c(C(=O)NC[C@@H]3CSCN3C(=O)c3nc(C)sc3-c3cccc(C)c3)ccc(Cl)c2O1 (stereo partly drawn) [Example 133, 7-Chloro-2-methoxy-2,3-dihydro-benzofuran-4-carboxylic acid [(R)-3-(2-methyl-5-m-tolyl-thiazole-4-carbonyl)-thiazolidin-4-ylmethyl]-amide]
5 nM	6 nM	Cc1nc(C(=O)N2CSC[C@H]2CNC(=O)c2c(C)cn3ccsc23)c(-c2ccc(F)cc2)s1 [Example 132, 6-Methyl-pyrrolo[2,1-b]thiazole-7-carboxylic acid {(R)-3-[5-(4-fluoro-phenyl)-2-methyl-thiazole-4-carbonyl]-thiazolidin-4-ylmethyl}-amide]
7 nM	11 nM	Cc1ccc(-c2nc(C)sc2C(=O)N2CSC[C@H]2CNC(=O)c2c(C)nc3sccn23)cc1 [Example 41, 6-Methyl-imidazo[2,1-b]thiazole-5-carboxylic acid [(R)-3-(2-methyl-4-p-tolyl-thiazole-5-carbonyl)-thiazolidin-4-ylmethyl]-amide]
6 nM	6 nM	Cn1nc(C(=O)NC[C@@H]2CSCN2C(=O)c2ccccc2-c2ccccc2)c2ccccc21 [Example 83, 1-Methyl-1H-indazole-3-carboxylic acid [(R)-3-(biphenyl-2-carbonyl)-thiazolidin-4-ylmethyl]-amide]
1 nM	1 nM	COc1cccc(-c2sc(C)nc2C(=O)N2CSC[C@H]2CNC(=O)c2cccc3occc23)c1 [Example 11, Benzofuran-4-carboxylic acid {(R)-3-[5-(3-methoxy-phenyl)-2-methyl-thiazole-4-carbonyl]-thiazolidin-4-ylmethyl}-amide]
6 nM	17 nM	Cc1nc(C(=O)N2CSC[C@H]2CNC(=O)c2cccc3c2NCCO3)c(-c2ccc(F)cc2)s1 [Example 112, 3,4-Dihydro-2H-benzo[1,4]oxazine-5-carboxylic acid {(R)-3-[5-(4-fluoro-phenyl)-2-methyl-thiazole-4-carbonyl]-thiazolidin-4-ylmethyl}-amide]
–	8 nM	Cc1nc(C(=O)N2CSC[C@H]2CNC(=O)c2nn(C)c3ccccc23)c(-c2ccc(F)cc2)s1 [Example 4, 1-Methyl-1H-indazole-3-carboxylic acid {(R)-3-[5-(4-fluoro-phenyl)-2-methyl-thiazole-4-carbonyl]-thiazolidin-4-ylmethyl}-amide]
9 nM	10 nM	Cc1cccc(-c2sc(C)nc2C(=O)N2CSC[C@H]2CNC(=O)c2cccc3oc(CO)cc23)c1 [Example 147, 2-Hydroxymethyl-benzofuran-4-carboxylic acid [(R)-3-(2-methyl-5-m-tolyl-thiazole-4-carbonyl)-thiazolidin-4-ylmethyl]-amide]
5950 nM	22 nM	Cc1nc(C(=O)N2CSC[C@H]2CNC(=O)c2cc3ccccc3s2)c(-c2ccc(F)cc2)s1 [Example 91, Benzo[b]thiophene-2-carboxylic acid {(R)-3-[5-(4-fluoro-phenyl)-2-methyl-thiazole-4-carbonyl]-thiazolidin-4-ylmethyl}-amide]
2 nM	3 nM	Cc1cccc(-c2sc(C)nc2C(=O)N2CSC[C@H]2CNC(=O)c2cccc3ncoc23)c1 [Example 119, Benzooxazole-7-carboxylic acid [(R)-3-(2-methyl-5-m-tolyl-thiazole-4-carbonyl)-thiazolidin-4-ylmethyl]-amide]
